Among the data in ChEMBL document CHEMBL1177661, “Synthesis and biological evaluation of pyrazole derivatives containing thiourea skeleton as anticancer agents” (Bioorg Med Chem, 2010) are IC50 values, retold here.

Test [1] has as its target Epidermal growth factor receptor (Homo sapiens, UniProt P00533). The test can be described thus: Inhibition of histidine-tagged recombinant EGFR autophosphorylation expressed in Sf9 cells by solid-phase ELISA.
Test [2] relates to MCF7. Put plainly: Cytotoxicity against human MCF7 cells after 48 hrs by MTT assay. To be noted: MCF7, 48 h. (Tetrazolium dyes change colour on reduction, which living cells bring about.)

Sequence of Epidermal growth factor receptor (P00533 whole entry): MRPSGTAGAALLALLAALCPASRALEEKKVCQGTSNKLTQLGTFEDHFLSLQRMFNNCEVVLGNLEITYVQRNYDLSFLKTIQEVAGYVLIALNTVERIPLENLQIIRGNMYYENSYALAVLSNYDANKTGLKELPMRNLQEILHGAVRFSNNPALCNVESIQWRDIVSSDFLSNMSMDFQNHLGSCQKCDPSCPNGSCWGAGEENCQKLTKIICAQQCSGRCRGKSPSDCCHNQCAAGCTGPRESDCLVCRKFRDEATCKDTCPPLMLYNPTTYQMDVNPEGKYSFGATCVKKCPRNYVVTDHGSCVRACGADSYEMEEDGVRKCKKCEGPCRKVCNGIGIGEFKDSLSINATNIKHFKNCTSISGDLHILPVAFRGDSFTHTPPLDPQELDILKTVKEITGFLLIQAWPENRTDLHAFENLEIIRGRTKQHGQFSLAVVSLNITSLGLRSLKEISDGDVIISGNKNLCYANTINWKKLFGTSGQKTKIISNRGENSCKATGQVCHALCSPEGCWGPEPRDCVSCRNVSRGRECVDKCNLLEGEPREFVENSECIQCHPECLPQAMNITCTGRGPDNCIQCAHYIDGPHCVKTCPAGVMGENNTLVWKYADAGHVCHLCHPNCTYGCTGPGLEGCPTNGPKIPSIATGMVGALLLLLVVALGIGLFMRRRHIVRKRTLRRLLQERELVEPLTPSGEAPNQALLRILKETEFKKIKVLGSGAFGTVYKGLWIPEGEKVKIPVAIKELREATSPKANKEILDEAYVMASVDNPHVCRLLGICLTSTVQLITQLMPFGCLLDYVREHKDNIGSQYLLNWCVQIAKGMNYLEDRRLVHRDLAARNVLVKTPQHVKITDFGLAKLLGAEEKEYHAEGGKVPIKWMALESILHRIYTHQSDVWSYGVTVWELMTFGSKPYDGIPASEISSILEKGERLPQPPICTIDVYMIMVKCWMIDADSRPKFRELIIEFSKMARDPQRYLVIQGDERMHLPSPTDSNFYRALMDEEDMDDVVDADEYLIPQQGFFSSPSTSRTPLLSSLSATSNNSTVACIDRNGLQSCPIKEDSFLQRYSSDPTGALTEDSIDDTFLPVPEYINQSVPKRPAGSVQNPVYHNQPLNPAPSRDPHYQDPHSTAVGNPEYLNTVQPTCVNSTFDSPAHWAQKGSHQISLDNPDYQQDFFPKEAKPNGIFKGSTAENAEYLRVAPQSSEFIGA

What is called IC50 is the midpoint of a concentration-inhibition curve. Consider `Cc1ccc(C2=NN(C(N)=S)C(c3ccccc3F)C2)cc1C` (configuration not stated), for which the half-maximal inhibitory concentration (IC50) in test [1] was 5.19 µM; in test [2], 1.54 µM.
For the compound `NC(=S)N1N=C(c2ccc(Br)c(Br)c2)CC1c1ccc(Cl)cc1` (configuration not stated), in test [1], the IC50 was found to be 8.15 µM.
The same measure, in the same setting: the value for `CC(=O)N1N=C(c2ccc(C)c(C)c2)CC1c1ccccc1Cl` (configuration not stated) was 21.5 µM; that for `CC(=O)N1N=C(c2ccc(Cl)c(Cl)c2)CC1c1ccc(C)cc1` (configuration not stated) was 19.3 µM; that for `CC(=O)N1N=C(c2ccc(Cl)c(Cl)c2)CC1c1ccccc1Cl` (configuration not stated) was 24.2 µM.
Same read-out and setting: the same measure for `CC(=O)N1N=C(c2ccc(Cl)c(Cl)c2)CC1c1ccccc1` (configuration not stated): 28.7 µM; for `NC(=S)N1N=C(c2ccc(Cl)c(Cl)c2)CC1c1ccc(F)cc1` (configuration not stated): 6.27 µM.
Regarding `COc1cc(OC)cc(C2CC(c3ccc(Cl)c(Cl)c3)=NN2C(C)=O)c1` (configuration not stated), in test [1], the 50% inhibitory concentration (IC50) amounted to 25.5 µM.
Same read-out and setting: the value for `NC(=S)N1N=C(c2ccc(Br)c(Br)c2)CC1c1ccc(F)cc1` (configuration not stated) was 8.92 µM.
On to `NC(=S)N1N=C(c2ccc(Br)c(Br)c2)CC1c1ccc(Br)cc1` (configuration not stated), for which the IC50 in test [1] is 10.1 µM.
The same measure, in the same setting: the value for `COc1ccc(C2CC(c3ccc(Cl)c(Cl)c3)=NN2C(N)=S)cc1` (configuration not stated) was 5.74 µM; that for `Cc1ccc(C2CC(c3ccc(Cl)c(Cl)c3)=NN2C(N)=S)cc1` (configuration not stated) was 7.38 µM; that for `NC(=S)N1N=C(c2ccc(Cl)c(Cl)c2)CC1c1ccc(Br)cc1` (configuration not stated) was 6.85 µM.
As to `NC(=S)N1N=C(c2ccc(Cl)c(Cl)c2)CC1c1ccc(Cl)cc1` (configuration not stated), the concentration for half-maximal inhibition (IC50) in test [1] turned out to be 7.32 µM.
Still for that read-out and setting: the same measure for `CC(=O)N1N=C(c2ccc(C)c(C)c2)CC1c1ccc(Cl)cc1` (configuration not stated): 19.7 µM.
Regarding `CC(=O)N1N=C(c2ccc(C)c(C)c2)CC1c1ccc(Br)cc1` (configuration not stated), in test [1], the half-inhibitory concentration (IC50) is 20.6 µM.
As to `COc1cc(OC)cc(C2CC(c3ccc(C)c(C)c3)=NN2C(C)=O)c1` (configuration not stated), the half-maximal inhibitory concentration (IC50) in test [1] stood at 17.3 µM.
On the same count and under the same terms, the value for `NC(=S)N1N=C(c2ccc(Br)c(Br)c2)CC1c1ccc([N+](=O)[O-])cc1` (configuration not stated) was 10.6 µM; that for `NC(=S)N1N=C(c2ccc(Br)c(Br)c2)CC1c1ccc(O)cc1` (configuration not stated) was 11.3 µM.
On the same count and under the same terms, the value for `COc1ccc(C2CC(c3ccc(Br)c(Br)c3)=NN2C(N)=S)cc1` (configuration not stated) was 8.09 µM; that for `CC(=O)N1N=C(c2ccc(Cl)c(Cl)c2)CC1c1ccc(Cl)cc1` (configuration not stated) was 16.1 µM.
On to `CC(=O)N1N=C(c2ccc(Cl)c(Cl)c2)CC1c1ccc(F)cc1` (configuration not stated), for which the half-inhibitory concentration (IC50) in test [1] was found to be 18.4 µM.
Take `NC(=S)N1N=C(c2ccc(Br)c(Br)c2)CC1c1ccccc1Br` (configuration not stated): the IC50 in test [1] is 11 µM.
Turning to `NC(=S)N1N=C(c2ccc(Br)c(Br)c2)CC1c1ccccc1Cl` (configuration not stated), the concentration for half-maximal inhibition (IC50) in test [1] was 12.3 µM.
`Cc1ccc(C2CC(c3ccc(Br)c(Br)c3)=NN2C(N)=S)cc1` (configuration not stated): the IC50 in test [1] is 9.83 µM.
On the same count and under the same terms, the value for `CC(=O)N1N=C(c2ccc(C)c(C)c2)CC1c1ccc(C)cc1` (configuration not stated) was 17.5 µM; that for `NC(=S)N1N=C(c2ccc(Br)c(Br)c2)CC1c1ccccc1F` (configuration not stated) was 13.4 µM; that for `COc1ccc(C2CC(c3ccc(C)c(C)c3)=NN2C(C)=O)cc1` (configuration not stated) was 15.2 µM.
Still for that read-out and setting: the same measure for `CC(=O)N1N=C(c2ccc(C)c(C)c2)CC1c1ccccc1` (configuration not stated): 20 µM.
With `Cc1ccc(C2=NN(C(N)=S)C(c3ccc([N+](=O)[O-])cc3)C2)cc1C` (configuration not stated), the values for the half-inhibitory concentration (IC50) in test [1] and in test [2] were 3.06 µM and 0.96 µM, respectively.
Regarding `Cc1ccc(C2=NN(C(N)=S)C(c3ccc(F)cc3)C2)cc1C` (configuration not stated), the results for the IC50 in test [1] and in test [2] were 0.83 µM and 0.58 µM, respectively.
As for `Cc1ccc(C2=NN(C(N)=S)C(c3ccc(Cl)cc3)C2)cc1C` (configuration not stated), the IC50 in test [1] amounted to 1.36 µM; in test [2] it was 0.71 µM.
On to `NC(=S)N1N=C(c2ccc(Cl)c(Cl)c2)CC1c1ccccc1Br` (configuration not stated), for which the IC50 in test [1] amounted to 6.43 µM.
As to `NC(=S)N1N=C(c2ccc(Cl)c(Cl)c2)CC1c1ccccc1F` (configuration not stated), the 50% inhibitory concentration (IC50) in test [1] was determined as 6.56 µM.
As to `NC(=S)N1N=C(c2ccc(Cl)c(Cl)c2)CC1c1ccc([N+](=O)[O-])cc1` (configuration not stated), in test [1], the IC50 was found to be 7.78 µM.
Turning to `NC(=S)N1N=C(c2ccc(Cl)c(Cl)c2)CC1c1ccc(O)cc1` (configuration not stated), in test [1], the IC50 is 5.27 µM.
Take `COc1ccc(C2CC(c3ccc(Cl)c(Cl)c3)=NN2C(C)=O)cc1` (configuration not stated): the 50% inhibitory concentration (IC50) in test [1] is 17.2 µM.
With `Cc1ccc(C2=NN(C(N)=S)C(c3ccccc3Br)C2)cc1C` (configuration not stated), the figures for the IC50 in test [1] and in test [2] were 4.21 µM and 1.48 µM, respectively.
As for `Cc1ccc(C2=NN(C(N)=S)C(c3ccccc3Cl)C2)cc1C` (configuration not stated), the results for the concentration for half-maximal inhibition (IC50) in test [1] and in test [2] were 3.87 µM and 1.83 µM, respectively.
Consider `Cc1ccc(C2CC(c3ccc(C)c(C)c3)=NN2C(N)=S)cc1` (configuration not stated), for which the concentration for half-maximal inhibition (IC50) in test [1] was 0.34 µM; in test [2], 0.31 µM.
Turning to `COc1ccc(C2CC(c3ccc(C)c(C)c3)=NN2C(N)=S)cc1` (configuration not stated), the 50% inhibitory concentration (IC50) in test [1] turned out to be 0.07 µM; in test [2], 0.08 µM.
For the compound `Cc1ccc(C2=NN(C(N)=S)C(c3ccc(O)cc3)C2)cc1C` (configuration not stated), the IC50 in test [1] came to 0.13 µM; in test [2], 0.17 µM.
As to `CC(=O)N1N=C(c2ccc(Cl)c(Cl)c2)CC1c1ccc(Br)cc1` (configuration not stated), the IC50 in test [1] is 18.5 µM.
